Legend:
[1] = tested on: AIA rats; details: AIA rats; MTX alone; versus vehicle-treated AIA rats
[2] = tested on: AIA rats; assay: Radiological and histopathological examination of hind paws / ankle joints of AIA rats; type: in vivo, Sprague-Dawley (SD) rats
Experimental: Disease severity and progression were evaluated by measurements of both hind paw volumes with a plethysmometer chamber (Yiyan technology, Jinan, China) and body weight with a 0.1 g precision balance (Sartorius AG, Göttingen, Germany) every two or three days after arthritis induction. For evaluation the arthritic scoring, the lesions of four paws of each rat (i.e., the arthritic signs) were graded by two separate investigators with a semi-quantitative scale: 0 (normal), 4-8 (mild changes), 8-12 (moderate changes), and 12-16 (severe changes) (van Eden W., et. al., J. E. Coligan, Editor. 2001, John Wiley: New York. p. 1-11). Erythrocyte sedimentation rate (ESR) was determined with ICSH (International Council for Standardization in Hematology) selected method with little modifications at day 42. Briefly, 120 μl of blood sample was taken directly and put into 30 μl of 0.109 mol/L sodium citrate, mixed well, and then transferred into a 1.0 mm×100 mm capillary tube (West China Medical University, ChengDu, China). The tubes were held obliquely at an angle of […] and the erythrocyte sedimentation rate was recorded at 15 min. The cytokines levels including IL-1β, TNF-α, IL-17, IL-33, MMP-9, TIMP-1 and PGE2 in serum were measured using commercially available ELISA kits according to the manufacturers instructions. At the end of the experiments, rat knee images were measured (mean of three readings per knee, Meinaite digital calliper, ShangHai, China) using a IVIS Lumina XRMS Series (PerkinElmer, America) (Esser, R. E., et al., Arthritis Rheum, 1995, 38(1): p. 129-38).
For histopathological assessment, arthritic paws were collected on day 42 after X-ray check, fixed with 10% phosphate buffered saline (PBS) buffered formalin, and decalcified for 3 days in formic acid. Sections from paraffin-embedded tissue were stained with hematoxylin and eosin (H&E). The obtained plasma was stored in −70° C. for metabolomic studies. The relative organ weight ratios (such as liver index, spleen index, kidney index, lung index) were calculated by dividing the weight of each organ with the body weight.

[3] = tested on: AIA rats; assay: Plasma metabolomics by LC-MS/MS in AIA rats; type: in vivo, Sprague-Dawley (SD) rats
Experimental: The plasma sample (200 μL) was thawed on ice for 5 min prior to sample preparation and was mixed with 200 μL of 10 mM N-ethylmaleimide (NEM) in PBS buffer solution and 1000 μL of methanol containing internal standard (I.S.) Phe-d5 in 10 ng/ml. This mixture was incubated at −20° C. for 20 min, and then centrifuged at 12000 rpm for 10 min at 4° C. The supernatant was completely dried under nitrogen flow (Pressure Blowing Concentrator, Tokyo Rikakika, Tokyo, Japan) and reconstituted with distilled water.
LC-MS/MS analysis was performed on A Waters ACQUITY UPLC coupled with a 4000 Q-TRAP mass spectrometer. Chromatographic separation was carried on a Waters X Bridge™ BEH C18 analytical column (2.5 μm, 3.0×100 mm; Waters, Torrance, Calif.) with a mobile phase composed of 0.1% formic acid water (solvent A) and methanol (solvent B) which was running in a gradient program: 0-3.0 min (0%-1% B); 3.0-10.0 min (1-3% B); 10.0-14.0 min (3-50% B); 14.0-18.0 min (50-95% B); 18.0-22.0 min (95-0% B); followed by a 3-min re-equilibration step. The injection volume was 10 μl at 4° C. and flow rate was 0.6 ml/min. Electrospray (ESI) source were used in both positive and negative ion mode. […]
The normalized data were exported and further processed by PCA and PLS-DA using a multivariate analysis package SIMCA-P software (Umea, Sweden). Model quality was evaluated based on the relevant values of R^2 and Q^2. […]

[4] = tested on: key enzymes involved in lipid metabolism in liver; assay: Real-time PCR and Western blot of lipid metabolism enzymes in liver of AIA rats; type: in vivo, Sprague-Dawley (SD) rats; details: AIA rats liver
Experimental: Total RNA was isolated from the frozen liver of the AIA model using TRIzol® Reagent (Life technology, USA). mRNA was purified by binding to poly(dT) magnetic beads using Dynabeads® mRNA DIRECT™ Kit (Life technology, Norway) and reverse transcribed using SuperScript® III reverse transcriptase (Invitrogen, California, USA) as described by the manufacturer. Quantitative real-time PCR was performed using SYBR Green (Sigma-Aldrich, Louis, USA) on the ViiA™ 7 Real-Time PCR System (Applied Biosystems, FosterCity, USA). Quantitative RT-PCR analysis was performed using SYBR Green reagents and ViiA™ 7 Real-Time PCR System. Gene expression levels were calculated from cycle threshold (Ct) values and normalized with control gene GAPDH.
Liver tissue homogenates of AIA and MCD animal models were lysed in RIPA buffer (50 mM pH 7.4 Tris, 150 mM NaCl, 1% Triton X-100, 1% sodium deoxycholate, 0.1% SDS, sodium orthovanadate, sodium fluoride and EDTA) containing protease inhibitor cocktails (Roche Life Science, USA). Protein concentration was determined using the BCA protein assay kit (BIO-RAD, USA). Equal amounts of total protein were resolved using SDS-PAGE and transferred onto PVDF membranes (Millipore, Darmstadt, Germany). After incubation in a blocking solution containing with 5% (w/v) skim milk (Nestle Carnation, New Zealand) in TBST buffer (10 mM tris-buffered saline and 0.1% Tween20) for 1 h at room temperature and incubated with primary antibodies overnight at 4° C. The membranes were washed three times with 1×TBST solutions and incubated with the appropriate secondary antibodies at room temperature for 45 min, and subsequently visualized with an enhanced chemiluminescence detection kit (SuperSignal™ West Pico Chemiluminescent Substrate, Thermo Scientific, USA). β-actin was used as the loading control for the experimental data analysis.

[5] = tested on: AIA rats; assay: Assessment of liver abnormality and lipid profile in AIA model; type: in vivo, Sprague-Dawley (SD) rats
Experimental: Serum ALT, AST, ALP, GGT and total bilirubin were measured by automatic biochemical analyzer (Toshiba Corporation, Tokyo, Japan). Lipids profile including TG, TC, HDL-C, LDL-C/vLDL-C and free fatty acids were measured in the serum. After animals were sacrificed, tissues of liver were fixed in 10% formalin solution, cleared in xylene, embedded in paraffin blocks from which 5 micron-thick sections were obtained. Sections were stained with H&E dye and examined for pathological changes under light microscope by a pathologist blind to the specimens.

GGT serum level ([5]; methotrexate alone, 42 days): significant increase
SMILES: CN(Cc1cnc2nc(N)nc(N)c2n1)c1ccc(C(=O)N[C@@H](CCC(=O)O)C(=O)O)cc1 [MTX, methotrexate, reference compound]
changes in arthritis score [1]: significantly (p<0.001) ameliorated
changes in paw volume [1]: significantly (p<0.001) ameliorated
cartilage and joint destruction of the arthritic joints (radiographs) ([2]; MTX, day 42): ameliorated
infiltration of inflammatory cells, synovial hyperplasia ([2]; ankle joint sections, H&E): diminished
histological grade of representative ankle joint sections ([2]; day 42, H&E, FIG. 2C (MTX; Silybin 200 mg/kg), vehicle-treated AIA grade 2/3): 0
metabolic network (plasma metabolites) [3]: effectively repair the metabolic network
expression of aP2 in the liver [4]: reduced
mRNA and/or protein expression of LPL, CYP7A1, and SREBP1 in liver [4]: greatly repressed
overexpression of SREBP1 [4]: not modulated
increased mRNA levels of hepatic lipogenesis genes (SREBP1, LXR, FXR) ([4]; real-time PCR): attenuated
changes of key lipogenic enzyme in both gene and protein levels ([4]; real-time PCR and Western blot): ameliorated changes
histopathological assessment of liver tissue ([5]; H&E liver sections): congested portal tract and mild fatty changes with lipid drop lets
dyslipidemia (serum lipid profile) ([5]; MTX): successfully improved
ALT serum level ([5]; methotrexate alone, 42 days): significant increase

— patent publication US20180289666A1, “FLAVONOLIGNANS FOR TREATMENT OF AUTOIMMUNE INFLAMMATORY DISEASES” (Macau University of Science and Technology, priority 2017, published 2018)
